Data published in paper PMC8422652, “Neuromedin U induces an invasive phenotype in CRC cells expressing the NMUR2 receptor” (Journal of Experimental & Clinical Cancer Research : CR, 2021).
Where two headings read alike, the source gives them in different places. Square brackets hold non-standard residues; d marks the D form. Ends that are not written are not given here. Peptide text beside a SMILES is read from it. Dmt = Cc1cc(O)cc(C)c1C[C@H](N)C(=O)O; Tic = O=C(O)[C@@H]1Cc2ccccc2CN1

Key:
[1] = test system: NMUR1 and NMUR2 expression in CRC cells; experiment: 5-aza-CdR treatment for NMUR1 and NMUR2 expression analysis (real-time PCR); assay type: cell-based, human; conditions: 50 µM for 96 h (4 days), n ≥ 4
Method: Total RNA was isolated with the ReliaPrep™ RNA Cell Miniprep System (Promega, Madison, WI, USA). The quality control of isolated RNA was performed using the 2100 Bioanalyser (Agilent Technologies, Palo Alto, CA, USA) according to the manufacturer’s instructions. 1 µg of the isolated total RNA (RIN ≥ 8) was reverse transcribed using the High Capacity cDNA Reverse Transcription Kit (Applied Biosystems, CA, USA) according to the manufacturer’s instructions. Real time PCR for human NMU, NMUR1, NMUR2, NTSR1, GHSR1b, GAPDH and β-actin was performed using FastStart Essential DNA Probes Master or FastStart Essential DNA Green Master (Roche, Basel, Switzerland). Amplification was performed on a Roche LightCycler 96. GADPH and/or β-actin mRNA transcripts were used as internal control genes. The amount of target in the various samples was calculated using the 2^−ΔCt relative quantification method with DataAssist v.3.01.
Cells were seeded on 6-well plates (Corning, NY, USA). After cells attachment (6 h), DNA methyltransferase inhibitor, 5-aza-2’-deoxycytidine (5-aza-CdR) (Sigma-Aldrich) was added at final concentration of 50 µM. Medium containing 5-aza-CdR was refreshed every 24 h. After 96 h, total RNA was isolated and analysed. The real-time PCR products were analysed on a 2 % agarose gel with ethidium bromide (Sigma-Aldrich) and visualized.

[2] = Half-life in human plasma (plasma stability); assay type: in vitro ADME
Excerpt: NMURs agonists, which are NMU-8 analogues, were synthesized with a HPLC purity > 98 %, as described in literature. […] All peptides were used as solutions in water. Peptide sequences and stability data are available in the Table S1 (Additional File 1).

[3] = test system: ERK1/2 in HEK293 R2_HA cells; experiment: ERK1/2 activation analysis (immunoblot) in HEK293 R2_HA cells; assay type: cell-based, human; conditions: HEK293 R2_HA clone, n = 1
Method: CRC cells were lysed with RIPA buffer (100 mM TRIS-HCl, pH 7.5, 300 mM NaCl, 0.2 % SDS with 1 % IGEPAL CA-630 and the Halt™ Protease Inhibitor Cocktail (Thermo Fisher Scientific)) with subsequent centrifugation (18,000 x g, 4 °C, 20 min). Total protein concentration in lysate was quantified by BCA method (Pierce BCA Protein Assay; Thermo Fisher Scientific). Samples were loaded and separated by SDS-PAGE (Mini-PROTEAN TGX Stain-Free Gels; Bio-Rad Laboratories, CA, USA) and transferred onto nitrocellulose membranes (Bio-Rad Laboratories). NMU protein was detected with rabbit anti-NMU antibody (Genetex, CA, USA), for ERK1/2 kinases analysis mouse anti-ERK1/2 (Santa Cruz Biotechnology, USA) and rabbit anti-pERK1/2 antibodies (Invitrogen) were used. […] Proteins used as loading controls were detected by mouse anti-β-actin, mouse anti-α-tubulin or rabbit anti-GAPDH antibody (Abcam, Cambridge, GB). […] The signal was detected by chemiluminescence (Thermo Fisher Scientific) with Kodak BioMax Light Film from Eastman Kodak (NY, USA). […]
Fig. S1 HEK293 R2_HA clones with exogenous NMUR2 overexpression. (A) NMUR2 mRNA levels were analysed in HT29 with endogenous expression of NMUR2 and compared to those in HEK293 R2_HA clones with exogenous expression of NMUR2 (**p ≤ 0,01; n ≥ 3). […] The changes in fluorescence were detected and analysed as described in the Methods section. […]

HT29 cells = experiment: Ca2+ mobilization assay (fluo-4) in HT29 cells; assay type: cell-based, human
Method: (§1) Cells grown on poly-lysine-coated 48-well plates (Corning) for 24 h were stained for 15 min at 37 °C with Hoechst 33342 (Invitrogen). PBS rinsed cells were loaded with Fluo-4 AM (5 µM; Invitrogen) for 45–60 min at 37 °C in the presence of 0.5 % of pluronic-127 in the incubation medium (growth medium without FBS and PS, supplemented with 0.1 % BSA). Cells were rinsed with warm PBS and bathed in a final volume of 300 µl of incubation medium. Images were acquired using AxioVert fluorescence inverted microscope (Zeiss, Germany) with the use of 10 x dry objective (NA 0.3). First, an image of Hoechst 33342-stained nuclei was acquired. Next, a time-lapse image sequence in green channel (Fluo-4) was recorded with exposure time of 500 ms in the same field of view. […] For analysis of CRC cells we chose minimal concertation that induce significant fluorescence change. NMU-9 (1 µM) and NMUR2 agonist (200 nM ~ 5 times the EC50 determined in literature). […] Quantification of the effects is described in Additional Files 1 and 3. […]
(§2) Quantification of the calcium mobilisation were performed with the use of FIJI image processing package***. […] Fluorescence intensity change over time was measured in each ROI in corresponding movie sequence of Fluo-4 stained cells. […] Such background-corrected values of fluorescence intensity were used for further calculations. […]

ERK1/2 in Caco-2 cells = experiment: ERK1/2 activation analysis (immunoblot) in Caco-2 cells; assay type: cell-based, human; conditions: SBL-NMU-17 250 nM, immunoblot pERK1/2 normalised to ERK1/2 and α-tubulin, n = 5 (NMU-9 n = 1)
Method: CRC cells were lysed with RIPA buffer (100 mM TRIS-HCl, pH 7.5, 300 mM NaCl, 0.2 % SDS with 1 % IGEPAL CA-630 and the Halt™ Protease Inhibitor Cocktail (Thermo Fisher Scientific)) with subsequent centrifugation (18,000 x g, 4 °C, 20 min). Total protein concentration in lysate was quantified by BCA method (Pierce BCA Protein Assay; Thermo Fisher Scientific). Samples were loaded and separated by SDS-PAGE (Mini-PROTEAN TGX Stain-Free Gels; Bio-Rad Laboratories, CA, USA) and transferred onto nitrocellulose membranes (Bio-Rad Laboratories). NMU protein was detected with rabbit anti-NMU antibody (Genetex, CA, USA), for ERK1/2 kinases analysis mouse anti-ERK1/2 (Santa Cruz Biotechnology, USA) and rabbit anti-pERK1/2 antibodies (Invitrogen) were used. In EVs (extracellular vesicles) purity analysis we used rabbit antibodies anti-GM130, anti-annexin V and anti-flotilin-1 (Cell Signaling Technologies, Danvers, MA, USA). Proteins used as loading controls were detected by mouse anti-β-actin, mouse anti-α-tubulin or rabbit anti-GAPDH antibody (Abcam, Cambridge, GB). We used secondary HRP-conjugated goat anti-mouse (Santa Cruz Biotechnology) or anti-rabbit antibodies (Invitrogen). The signal was detected by chemiluminescence (Thermo Fisher Scientific) with Kodak BioMax Light Film from Eastman Kodak (NY, USA). […]

[4] = test system: HEK293 R2_HA cell line overexpressing NMUR2; experiment: Ca2+ mobilization assay (fluo-4) in HEK293 R2_HA cells; assay type: cell-based, human
Method: as §1, §2

NMUR2 = NMUR2 agonist, cited from earlier work
Excerpt: (§3) NMURs agonists, which are NMU-8 analogues, were synthesized with a HPLC purity > 98 %, as described in literature.

HCT116 cells = experiment: Ca2+ mobilization assay (fluo-4) in HCT116 cells; assay type: cell-based, human; conditions: 1 µM NMU-9, 40 nM NMUR1 agonist, percentage of cells above threshold, n = 5
Method: as §1, with “change.” for “change. NMU-9 (1 µM) and NMUR2 agonist (200 nM ~ 5 times the EC50 determined in literature).”
Quantification of the calcium mobilisation were performed with the use of FIJI image processing package***. […] Fluorescence intensity change over time was measured in each ROI in corresponding movie sequence of Fluo-4 stained cells. To acquire the change of background fluorescence over time in each movie sequence, additional ROIs were created by the analyst manually in the sites devoid of cells. […]

[5] = cited from earlier work
Excerpt: Supplement 13046_2021_2073_MOESM1_ESM.docx, table 1: Table S1. […] NMURs agonists, which are NMU-8 analogues, were synthesized with a HPLC purity > 98 %, as described in literature.

NMUR1 = NMUR1 agonist, cited from earlier work
Excerpt: as §3

[6] = species not given; cited from earlier work
Excerpt: Physiologically, NMU has been predominantly found in the central nervous system and in the periphery. In the gastrointestinal tract, locally administered NMU leads to smooth muscle contraction, regulating intestinal motility and regional blood flow, but epithelial cells are not the source of the peptide in the gastrointestinal tract under normal conditions. Human neuromedin U synthesis is tightly regulated at the genetic, epigenetic, transcriptional and post-transcriptional levels, regulating access to cellular microenvironments. Peptide precursors can be produced from three ...

## Nc1ncn([C@H]2C[C@H](O)[C@@H](CO)O2)c(=O)n1 [5-aza-CdR, 5-aza-2’-deoxycytidine]
[1]
  NMUR1 and NMUR2 expression after DNA demethylation: regulated by promoter methylation

## CC(C)C[C@H](NC(=O)[C@H](Cc1ccccc1)NC(=O)[C@@H](N)Cc1ccc(O)cc1)C(=O)N[C@@H](Cc1ccccc1)C(=O)N[C@@H](CCCNC(=N)N)C(=O)N1Cc2ccccc2C[C@H]1C(=O)N[C@@H](CCCNC(=N)N)C(=O)N[C@@H](CC(N)=O)C(N)=O [SBL-NMU-17] (H-YFLFR[Tic]RN-NH2)
[2]; human plasma, both peptides yielded a 7-amino acid long metabolite
  Metabolite observed in plasma stability studies: only Tyr was lost
[3]
  ERK1/2 phosphorylation: observed ERK1/2 phosphorylation
HT29 cells; CRC cells, tested 150, 200, 300 nM
  Minimal concentration that induces significant fluorescence change (Ca2+ mobilisation): 200 nM
HT29 cells; HT29 cells, 1 µM NMU-9, 200 nM NMUR2 agonist, percentage of cells above threshold, n = 5
  Change in fluo-4 fluorescence intensity caused by Ca2+ mobilisation: significantly responded
ERK1/2 in Caco-2 cells
  Phosphorylation (activation) of ERK1/2 kinases: induced ERK1/2 kinase activation
[4]; HEK293 R2_HA cells loaded with fluo-4
  Minimal effective concentration (Ca2+ influx): 150 nM
[4]; HEK293 R2_HA, NMU-9 0.7 µM, SBL-NMU-17 150 nM, n = 3
  Calcium mobilisation (fluo-4): significant calcium mobilisation
NMUR2; IP3 pathway activation data
  EC50: 45.5 nM
NMUR2; competitive binding assay
  IC50: 13 nM

## CC(=O)N[C@@H](Cc1ccc(O)cc1)C(=O)N[C@@H](Cc1ccccc1)C(=O)N[C@@H](CC(C)C)C(=O)N[C@@H](Cc1c(C)cc(O)cc1C)C(=O)N[C@@H](CCCNC(=N)N)C(=O)N1CCC[C@H]1C(=O)N[C@@H](CCCNC(=N)N)C(=O)N[C@@H](CC(N)=O)C(N)=O [SBL-NMU-21] (Ac-YFL[Dmt]RPRN-NH2)
HCT116 cells
  Change in fluo-4 fluorescence intensity caused by Ca2+ mobilisation: did not detect statistically significant changes
[5]
  Half-life in human plasma (t1/2): 253.5 min
NMUR1; calculated based on the IP3 pathway activation data
  EC50: 7.7 nM
NMUR1; calculated based on the competitive binding assay
  IC50: 0.36 nM

## GYFLFRPRN-NH2 [NMU-9]
[2]
  Metabolite observed in plasma stability studies: the peptide devoid of the Gly-Tyr segment was quickly observed
[2]; human
  Half-life in human plasma (t1/2): 4.60 ± 0.4 min

## NMU: Native neuromedin U peptide, secretory neuropeptide with amidated C-terminal pentapeptide (FRVDEEFQSPFASQSRGYFLFRPRN-NH2; UniProt P48645 142-166, looked up)
[6]
  estimated half-life in plasma: less than 5 min
